Experimental data: publication PMC9104013, “Role of Polyamine-Induced Dimerization of Antizyme in Its Cellular Functions” (International Journal of Molecular Sciences, 2022)

What was measured:
[1] = system: spermidine/spermine-N^1-acetyltransferase (SSAT); design: method as in PMID 21639123; settings: cited from earlier work
[2] = system: +1 frameshifting of eukaryotic OAZ1 mRNA; assay: Bicistronic β-galactosidase/firefly luciferase +1 frameshift reporter assay; type: cell-based, S. cerevisiae IS532/44d
Source text: For this purpose, the earlier developed frameshift reporter system, which includes quadruple S. cerevisiae mutant strain IS532/44d, unable to synthesize and degrade polyamines due to deletion of genes FMS1, SPE1, SPE2, and PAA1, and the plasmids pAC98T-OAZ1-FS and pAC98T-OAZ1-Cont were used. Each of these plasmids bears the reporter gene encoding β-galactosidase and firefly luciferase gene fused with the fragment of eukaryotic OAZ1 containing frameshift site. The plasmid pAC98T-OAZ1-FS contains native eukaryotic OAZ1 fragment, so the efficiency of luciferase synthesis and enzymatic activity depend on the +1 frameshift event. The plasmid pAC98T-OAZ1-Cont contains the eukaryotic OAZ1 fragment with […] replaced by TGG tryptophan codon that enables constitutive synthesis of both β-galactosidase and luciferase whose activity is taken as 100%. Bicistronic assays for frameshifting were performed as described earlier with the following modifications. Yeast transformants of IS532/44d strain were grown on agar plates with the synthetic media containing 0.67% (w/v) Yeast Nitrogen Base without amino acids (Sigma), 2% (w/v) glucose, 2% (w/v) agar, mixture of 19 amino acids without leucine (2 mg/mL each), and adenine (2 mg/mL) at 30 °C for 5–7 days. Then, colonies of yeast transformants were grown in the synthetic media lacking leucine and polyamines for two days. Yeast cultures were diluted to OD600 = 0.1 in 5 mL of synthetic media lacking leucine and supplemented with either Spd, 1-MeSpd, 2-MeSpd, or 3-MeSpd, each at final concentrations of 0.25, 0.5, 1, 2, and 4 mM. Yeast cultures were grown to log phase (OD600 = 0.8–1.4) at 30 °C and harvested by centrifugation, and cell pellets were washed three times with water. Cell pellets were resuspended in 500 μL of buffer containing 60 mM NaH2PO4, 40 mM Na2HPO4, 10 mM KCl, 1 mM MgSO4, 50 mM 2-mercaptoethanol, and 10% glycerol and lysed by vortexing with acid-washed glass beads (Sigma). The lysates were centrifuged (15,000× g, 10 min, 4 °C), and the supernatants were used for β-galactosidase and firefly luciferase reporter gene assays. β-Galactosidase activity was analyzed using ο-nitrophenyl-β-D-galactopyranoside (Sigma) as the substrate in accordance with published protocol. Activity of firefly luciferase was analyzed in 96-well plates using Luciferase Assay System (Promega). Frameshift frequencies were calculated as described.

[3] = biological target: T1, recombinant mOAZ1 protein (Mus musculus, UniProt P54369); assay: Electrophoresis of mOAZ1-Polyamine complex (0.01% SDS in running buffer); type: binding; settings: 200 μM polyamine, 30 min, 20 °C, pH 7.5
T1 construct: Full-length mOAZ1 protein was successfully produced in E. coli; made in house; host or cells: Escherichia coli Rosetta (DE3)
T1 sequence (P54369 whole entry): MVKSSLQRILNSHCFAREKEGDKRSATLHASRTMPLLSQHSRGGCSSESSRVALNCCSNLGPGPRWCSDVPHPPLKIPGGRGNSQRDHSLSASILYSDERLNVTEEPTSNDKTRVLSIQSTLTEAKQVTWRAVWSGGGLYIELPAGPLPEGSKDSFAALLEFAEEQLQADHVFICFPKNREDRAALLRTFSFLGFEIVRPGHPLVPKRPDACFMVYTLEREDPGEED
Experimental: The recombinant mOAZ1 protein (1 μg/band) was incubated with 200 μM of a polyamine at room temperature for 30 min. Then the sample was quenched with a loading buffer (200 mM Tris-HCl, pH 6.8, 0.01% bromophenol blue, and 40% glycerol) and applied onto 12% polyacrylamide gel lacking SDS. Electrophoresis was carried out in a running buffer with decreased SDS concentration (25 mM Tris base; 250 mM glycine; and 0.01% SDS) at 70 V. The gel was stained with Coomassie R-250.

[4] = system: spermine synthase (SpmSy); design: method as in PMID 21639123; settings: cited from earlier work
DU145 cells = assay: Intracellular polyamine and analogue concentrations in DU145 cells (HPLC); type: cell-based; settings: 4 h, 100 µM analogue, 1 mM AG
Experimental: The DU145 cell line was obtained from American Type Culture Collection, Manassas, VA, USA. OAZ1-overexpressing DU145 cells were generated as described earlier. The cells were cultured in humidified atmosphere at +37 °C, 10% CO2 in high-glucose Dulbecco’s Modified Eagle’s Medium supplemented with 10% heat-inactivated fetal bovine serum, 2 mM L-glutamine, and 50 μg/mL gentamycin. The cells were lysed in a buffer containing 50 mM potassium phosphate, pH 7.2, 0.1 mM EDTA, 0.1% Triton X-100, 1 mM dithiothreitol (DTT), and Complete EDTA-free protease inhibitor (Roche Diagnostics, Basel, Switzerland). Aliquots of the lysate were taken for polyamine measurement, and the rest was centrifuged at 13,000 rpm for 20 min at +4 °C. The supernatant was used for enzyme assays and Western blotting.
Polyamines were measured with HPLC according to the published method. Acid-precipitated pellets were dissolved to 0.1 M NaOH, and the amount of DNA was measured using the PicoGreen reagent (Invitrogen) according to manufacturer’s instructions using dilutions of calf thymus DNA (Sigma-Aldrich) as standard curve. Protein concentrations were measured using Bio-Rad protein kit with dilutions of bovine serum albumin (Bio-Rad, Hercules, CA, USA) as standards. ODC activities were measured from the cytosolic fractions as described earlier. For immunoblotting of OAZ1, 20–50 μg of total protein was separated on a 15% SDS-polyacrylamide gel, transferred to a membrane (Immobilon FL, Millipore, Burlington, MA, USA), and immunoblotted with rabbit anti-OAZ1 antibody (a kind gift from Prof. Olli Jänne, University of Helsinki, Finland) and rabbit antiactin (Santa Cruz Biotechnology, cat no sc-1616, used at 1:1000 dilution in 5% nonfat dry milk/PBS-Tween). The secondary antibody used was goat antirabbit (Santa Cruz Biotechnology, Dallas, TX, USA, cat no sc-2004, used at 1:10,000 dilution).

SMILES	Substrate of SSAT [1]	Frameshifting activity ([2]; 0.25 mM in medium)	Frameshifting activity ([2]; 2.0 mM and 4.0 mM in medium)	Formation of (mOAZ1)2-Polyamine complex / dimerization [3]	Substrate of spermine synthase (SpmSy) [4]	Intracellular Analogue (DU145 cells) [pmol/µg DNA]	Intracellular N1-AcSpd (DU145 cells) [pmol/µg DNA]	Intracellular Put (DU145 cells) [pmol/µg DNA]	Intracellular Spd (DU145 cells) [pmol/µg DNA]	Intracellular Spm (DU145 cells) [pmol/µg DNA]	Spd + MeSpd (DU145 cells) [pmol/µg DNA]	Spd + Spm + MeSpd (DU145 cells) [pmol/µg DNA]	Total polyamines (DU145 cells) [pmol/µg DNA]	Frameshifting activity ([2]; all concentrations tested (0.25-4 mM))
CC(N)CCNCCCCN (stereo not drawn) [1-MeSpd]	not a substrate of SSAT	about the same as Spd	weaker inducers of the frameshifting than Spd	dimeric and monomeric complexes	is a substrate of spermine synthase	170 ± 9.7	7.1 ± 0.2	9.5 ± 0.5	62.0 ± 3.9	74.0 ± 7.2	232	306	323	
CC(CN)CNCCCCN (stereo not drawn) [2-MeSpd]	substrate of both SSAT and SpmSy			only the band corresponding to mOAZ1 itself was observed	substrate of both SSAT and SpmSy	126 ± 14.5	4.9 ± 0.3	21.1 ± 0.7	70.2 ± 2.3	83.5 ± 6.8	196	279	306	substantially weaker inducer of +1 frameshift event than the other compounds
CC(CCN)NCCCCN (stereo not drawn) [3-MeSpd]	not a substrate of either SSAT or SpmSy		weaker inducers of the frameshifting than Spd	dimeric and monomeric complexes	not a substrate of either SSAT or SpmSy		5.9 ± 1.1	11.1 ± 0.2	65.3 ± 3.9	78.4 ± 5.8	168		264	
NCCCCNCCCN [Spd, spermidine]				induce dimerization of OAZ1										
